# Reference: PMC5972519 (Journal of pharmaceutical and biomedical analysis, 2016)
# What was measured:
# [1] = Plasma pharmacokinetics of; assay type: in vivo, Wistar rat; settings: for t1/2 Ratio (A/C): Acute Arm t1/2 / Chronic Arm t1/2 (fold reduction by 14-day dosing); for Plasma concentration at 30 min after ip administration: Acute Arm, single ip 40 mg/kg (R,S)-Ket; for Cmax / Tmax / t1/2 / concentration at 30 min / concentration at 40 min: plasma; for Plasma concentration Ratio (C/A): Chronic Arm / Acute Arm; for concentration at 30 min / concentration at 40 min: male, Wistar, rat, ip
# [2] = Partitioning between whole blood and plasma; assay type: in vitro ADME; settings: mouse whole blood, spiked 10, 1 and 0.1 μM, 30 min at 37°C
# [3] = Acute: single ip 40 mg/kg (R,S)-Ket
# [4] = Sub-chronic: Day 14 of ip 40 mg/kg (R,S)-Ket once per day for 14 days
# [5] = Acute: single ip 40 mg/kg (R,S)-Ket, 40 mg/kg
smiles,measurement,setting,value
"N[C@@]1(c2ccccc2Cl)CCC[C@@H](O)C1=O [(2S,6S;2R,6R)-HNK, (2S,6S;2R,6R)-hydroxynorketamine]",t1/2 Ratio (A/C),[1],1.2
same,Plasma concentration at 30 min after ip administration,[1],4327 ng/mL
same,Plasma concentration between 5 min and 60 min post-administration,[1]; [3],"> 1,000 ng/ml"
same,Cmax,[1]; [3],4641 ± 2020 ng/mL
same,Tmax,[1]; [3],0.61 ± 0.35 h
same,t1/2,"[1]; Acute: single ip 40 mg/kg (R,S)-Ket, male Wistar rats",13.2 ± 3.7 h
same,Plasma concentration Ratio (C/A),[1]; 30 min post dosing,1.4
same,Plasma concentration Ratio (C/A),"[1]; 30 min post dosing, listed as (2S,6S,2R,6R)-HNK",1.42
same,Plasma concentration at 72 hr post-administration,"[1]; Sub-chronic, Day 14 dose",15 ± 7 ng/mL
same,Cmax,[1]; [4],6491 ± 3008 ng/mL
same,Tmax,[1]; [4],0.78 ± 0.19 h
same,t1/2,[1]; [4],11.1 ± 1.8 h
"CNC1(c2ccccc2Cl)CCCCC1=O (racemic) [(R,S)-Ket, (R,S)-Ketamine, reference compound]",Share of compound found in the plasma fraction after incubation with whole blood,[2],> 90%
same,Plasma concentration between 5 min and 60 min post-administration,[1]; [3],"> 1,000 ng/ml"
same,concentration at 30 min,[1]; 40 mg/kg,2780 ng/mL
same,concentration at 40 min,[1]; 40 mg/kg,2600 ng/mL
"NC1(c2ccccc2Cl)CCCC(O)C1=O [(2S,6R;2R,6S)-HNK, (2S,6R;2R,6S)-hydroxynorketamine]",Plasma concentration at 30 min after ip administration,[1],172 ng/mL
same,Plasma concentration at 10 min post-dosing,[1]; [3],252 ± 81 ng/mL
same,Plasma concentration between 5 min and 60 min post-administration,[1]; [3],> 50 ng/mL
same,Plasma concentration Ratio (C/A),[1]; 30 min post dosing,4.5
same,Plasma concentration Ratio (C/A),"[1]; 30 min post dosing, listed as (2S,6R,2R,6S)-HNK",4.53
same,Cmax,[1]; [4],2101 ng/mL
same,t1/2,[1]; [4],1.3 h
"NC1(c2ccccc2Cl)CC(O)CCC1=O [(2S,4S;2R,4R)-HNK]",Plasma concentration between 5 min and 60 min post-administration,[1]; [3],> 50 ng/mL
same,Plasma concentration at 10 min post-dosing,[1]; [5],196 ± 132 ng/mL
"NC1(c2ccccc2Cl)CC(O)CCC1=O [(2S,4R;2R,4S)-HNK, (2S,4R;2R,4S)-hydroxynorketamine]",Plasma concentration at 30 min after ip administration,[1],218 ng/mL
same,Plasma concentration between 5 min and 60 min post-administration,[1]; [3],> 50 ng/mL
same,Plasma concentration at 10 min post-dosing,[1]; [5],257 ± 195 ng/mL
same,Plasma concentration Ratio (C/A),[1]; 30 min post dosing,1.7
same,Plasma concentration Ratio (C/A),"[1]; 30 min post dosing, listed as (2S,4R,2R,4S)-HNK",1.73
same,t1/2,[1]; [4],5.0 h
"NC1(c2ccccc2Cl)CCC=CC1=O (racemic) [(R,S)-DHNK, (R,S)-dehydronorketamie]",Share of compound found in the plasma fraction after incubation with whole blood,[2],< 20%
same,Plasma concentration at any sampling time,"[1]; after ip 40 mg/kg (R,S)-Ket, both arms",≤ 10 ng/mL
"NC1(c2ccccc2Cl)CCCCC1=O (racemic) [(R,S)-norKet, (R,S)-norketamine]",Share of compound found in the plasma fraction after incubation with whole blood,[2],> 90%
same,Fold reduction of relative plasma concentration by subchronic dosing,"[1]; 30 min post dosing, subchronic versus acute",1.6 fold
same,t1/2 Ratio (A/C),[1],1.4
same,Plasma concentration between 5 min and 60 min post-administration,[1]; [3],"> 1,000 ng/ml"
same,Plasma concentration Ratio (C/A),[1]; 30 min post dosing,0.62
same,concentration at 30 min,[1]; 40 mg/kg,2130 ng/mL
same,concentration at 40 min,[1]; 40 mg/kg,1340 ng/mL
"NC1(c2ccccc2Cl)CCC(O)CC1=O [(2S,5S;2R,5R)-HNK]",Plasma concentration at 10 min post-dosing,[1]; [3],181 ± 141 ng/mL
same,Plasma concentration between 5 min and 60 min post-administration,[1]; [3],> 50 ng/mL
